Laboratory results reported in PMC11855827, “High-Throughput Screening of Five Compound Libraries for Anthelmintic Activity and Toxicity Leads to the Discovery of Two Flavonoid Compounds” (International Journal of Molecular Sciences, 2025).
Like-named read-outs stand apart in the source and are kept apart here. *1 amine or outer side, *2 acyl side, *3 side chain or, on linkers, in order; H or OH if unused. Where a SMILES comes first, the peptide text is derived from it. Bridges are numbered along the chain shown (N, C = ends). [ ]: non-standard residue; d: D form. The star is where a group is joined. hTyr(3S-OH,4S-OH,3'-OSO3H) = N[C@H](C(=O)O)[C@H](O)[C@@H](O)c1ccc(O)c(OS(=O)(=O)O)c1; Orn(4R-OH,5R-OH) = O=C([C@H](C[C@@H](O)[C@@H](O)N[*:3])N[*:1])[*:2]; Pro(3S-OH,4S-Me) = C[C@H]1CN[C@H](C(=O)O)[C@H]1O; X1 = CCCCCOc1ccc(-c2cc(-c3ccc(C(=O)*)cc3)no2)cc1; Gln(3R-OH) = NC(=O)C[C@@H](O)[C@H](N)C(=O)O; Hyp = O=C(O)[C@@H]1C[C@@H](O)CN1

System: C. elegans
[1] = Table S2, C. elegans SS assay, 110 μM, 0 h, averages of 4 data points
[2] = Table S2, C. elegans SS assay, 110 μM, 24 h, averages of 4 data points

Row | SMILES | Percentage of motility inhibition 0 h [1] [%] | Percentage of motility inhibition 24 h [2] [%] | Percentage of motility inhibition 0 h (110 µM) [%] | Percentage of motility inhibition 24 h (110 µM) [%]
1 | COC[C@]12CN(C)[C@@H]3[C@@H]4[C@H](OC)[C@H]1[C@@]3([C@@H](OC)C[C@H]2O)[C@@H]1C[C@@]2(O)[C@H](OC(=O)c3ccccc3)[C@@H]1[C@]4(OC(C)=O)[C@@H](O)[C@@H]2OC [Mesaconitine] | 0 | 3 | – | –
2 | Cc1c(N(C)CS(=O)(=O)[O-])c(=O)n(-c2ccccc2)n1C.[Na+] [Metamizole (sodium)] | 17 | 2 | – | –
3 | C=C1c2cccc(O)c2C(=O)C2=C(O)[C@]3(O)C(=O)C(C(N)=O)=C(O)[C@@H](N(C)C)[C@@H]3[C@@H](O)[C@H]12.Cl [Methacycline (hydrochloride)] | 17 | 20 | – | –
4 | COc1cccc(OC)c1C(=O)N[C@@H]1C(=O)N2[C@@H]1SC(C)(C)[C@@H]2C(=O)[O-].[Na+] [Methicillin (sodium salt)] | 16 | 1 | – | –
5 | COC(=O)c1ccc(O)cn1 [Methyl 5‐hydroxypyridine‐2‐carboxylate] | 7 | 1 | – | –
6 | CNc1ccccc1C(=O)OC [Methyl N‐methylanthranilate] | 30 | 4 | – | –
7 | COC(=O)C1=CO[C@@H](O[C@@H]2O[C@H](CO)[C@@H](O)[C@H](O)[C@H]2O)[C@@H]2C(CO)=C[C@H](O)[C@H]12 [Methyl deacetylasperulosidate] | 16 | 30 | – | –
8 | COC(=O)[C@]12CCC(C)(C)C[C@H]1C1=CC[C@@H]3[C@@]4(C)CCC(=O)C(C)(C)[C@@H]4CC[C@@]3(C)[C@]1(C)CC2 [Methyl oleanonate] | 4 | 1 | – | –
9 | CO[C@]1(CC[C@@H](C)CO[C@@H]2O[C@H](CO)[C@@H](O)[C@H](O)[C@H]2O)O[C@H]2C[C@H]3[C@@H]4CC=C5C[C@@H](O[C@@H]6O[C@H](CO)[C@@H](O)[C@H](O[C@@H]7O[C@H](CO)[C@@H](O)[C@H](O)[C@H]7O)[C@H]6O[C@@H]6O[C@@H](C)[C@H](O)[C@@H](O)[C@H]6O)CC[C@]5(C)[C@H]4CC[C@]3(C)[C@H]2[C@@H]1C [Methyl protogracillin] | 0 | 15 | – | –
10 | COc1ccc2c(c1OC)O[C@H]1c3ccc(O[C@@H]4O[C@H](CO)[C@@H](O)[C@H](O)[C@H]4O)cc3OC[C@@H]21 [Methylnissolin‐3‐O‐glucoside] | 8 | 7 | – | –
11 | Cc1c(O)c(C)c2c(c1O)C(=O)[C@H](Cc1ccc3c(c1)OCO3)CO2 [Methylophiopogonanone A] | 21 | 0 | – | –
12 | COc1ccc(C[C@@H]2COc3c(C)c(O)c(C)c(O)c3C2=O)cc1 [Methylophiopogonanone B] | 0 | 21 | – | –
13 | Cc1c(O)c(C)c2occ(Cc3ccc4c(c3)OCO4)c(=O)c2c1O [Methylophiopogonone A] | 0 | 0 | – | –
14 | CC1(C)S[C@@H]2[C@H](NC(=O)[C@H](NC(=O)N3CCN(S(C)(=O)=O)C3=O)c3ccccc3)C(=O)N2[C@H]1C(=O)[O-].[Na+] [Mezlocillin (sodium)] | 0 | 4 | – | –
15 | CN1CCN2c3ccccc3Cc3ccccc3C2C1.Cl (centres unmarked) [Mianserin (hydrochloride)] | 0 | 0 | – | –
16 | CCCCCOc1ccc(-c2cc(-c3ccc(C(=O)N[C@H]4C[C@@H](O)[C@@H](O)NC(=O)[C@@H]5[C@@H](O)[C@@H](C)CN5C(=O)[C@H]([C@H](O)CC(N)=O)NC(=O)[C@H]([C@H](O)[C@@H](O)c5ccc(O)c(OS(=O)(=O)[O-])c5)NC(=O)[C@@H]5C[C@@H](O)CN5C(=O)[C@H]([C@@H](C)O)NC4=O)cc3)no2)cc1.[Na+] [Micafungin (sodium)] (X1-[Orn(4R-OH,5R-OH)]T[Hyp][hTyr(3S-OH,4S-OH,3'-OSO3H)][Gln(3R-OH)][Pro(3S-OH,4S-Me)]; lactam 1-C) | 3 | 0 | – | –
17 | Clc1ccc(COC(Cn2ccnc2)c2ccc(Cl)cc2Cl)c(Cl)c1.O=[N+]([O-])O (centres unmarked) [Miconazole (nitrate)] | 26 | 15 | – | –

Row | SMILES | Percentage of motility inhibition 0 h [1] [%] | Percentage of motility inhibition 24 h [2] [%] | Percentage of motility inhibition 0 h (110 µM) [%] | Percentage of motility inhibition 24 h (110 µM) [%]
18 | COC(=O)C1=CO[C@@H](C)[C@H]2CN3CC[C@]4(C(=O)Nc5ccccc54)[C@@H]3C[C@H]12 [Mitraphylline] | 0 | 21 | – | –
19 | C[C@H](CC[C@@H](O[C@@H]1O[C@H](CO)[C@@H](O)[C@H](O)[C@H]1O[C@@H]1O[C@H](CO)[C@@H](O)[C@H](O)[C@H]1O)C(C)(C)O)[C@H]1CC[C@@]2(C)[C@@H]3CC=C4[C@@H](CC[C@H](O[C@@H]5O[C@H](CO)[C@@H](O)[C@H](O)[C@H]5O)C4(C)C)[C@]3(C)[C@H](O)C[C@]12C [Mogroside III-E] | 25 | 17 | – | –
20 | C[C@H](CC[C@@H](O[C@@H]1O[C@H](CO[C@@H]2O[C@H](CO)[C@@H](O)[C@H](O)[C@H]2O)[C@@H](O)[C@H](O)[C@H]1O)C(C)(C)O)[C@H]1CC[C@@]2(C)[C@@H]3CC=C4[C@@H](CC[C@H](O[C@@H]5O[C@H](CO)[C@@H](O)[C@H](O)[C@H]5O)C4(C)C)[C@]3(C)[C@H](O)C[C@]12C [Mogroside III] | 7 | 3 | – | –
21 | C[C@H](CC[C@@H](O[C@@H]1O[C@H](CO)[C@@H](O)[C@H](O)[C@H]1O)C(C)(C)O)[C@H]1CC[C@@]2(C)[C@@H]3CC=C4[C@@H](CC[C@H](O[C@@H]5O[C@H](CO)[C@@H](O)[C@H](O)[C@H]5O)C4(C)C)[C@]3(C)[C@H](O)C[C@]12C [Mogroside IIe] | 0 | 7 | – | –
22 | C[C@H](CC[C@@H](O[C@@H]1O[C@H](CO[C@@H]2O[C@H](CO)[C@@H](O)[C@H](O)[C@H]2O)[C@@H](O)[C@H](O)[C@H]1O)C(C)(C)O)[C@H]1CC[C@@]2(C)[C@@H]3CC=C4[C@@H](CC[C@H](O[C@@H]5O[C@H](CO[C@@H]6O[C@H](CO)[C@@H](O)[C@H](O)[C@H]6O)[C@@H](O)[C@H](O)[C@H]5O)C4(C)C)[C@]3(C)[C@H](O)C[C@]12C [Mogroside IV-A] | 0 | 0 | – | –
23 | C[C@H](CC[C@@H](O[C@@H]1O[C@H](CO)[C@@H](O)[C@H](O)[C@H]1O[C@@H]1O[C@H](CO)[C@@H](O)[C@H](O)[C@H]1O)C(C)(C)O)[C@H]1CC[C@@]2(C)[C@H]3CC=C4[C@@H](CC[C@H](O[C@@H]5O[C@H](CO[C@@H]6O[C@H](CO)[C@@H](O)[C@H](O)[C@H]6O)[C@@H](O)[C@H](O)[C@H]5O)C4(C)C)[C@]3(C)[C@H](O)C[C@]12C [Mogroside IV-E] | 4 | 6 | – | –
24 | C[C@H](CC[C@@H](O[C@@H]1O[C@H](CO)[C@@H](O)[C@H](O)[C@H]1O[C@@H]1O[C@H](CO)[C@@H](O)[C@H](O)[C@H]1O)C(C)(C)O)[C@H]1CC[C@@]2(C)[C@H]3CC=C4[C@@H](CC[C@H](O[C@@H]5O[C@H](CO[C@@H]6O[C@H](CO)[C@@H](O)[C@H](O)[C@H]6O)[C@@H](O)[C@H](O)[C@H]5O)C4(C)C)[C@]3(C)[C@H](O)C[C@]12C [Mogroside IV] | 0 | 43 | – | –
25 | C[C@H](CC[C@@H](O[C@@H]1O[C@H](CO[C@@H]2O[C@H](CO)[C@@H](O)[C@H](O)[C@H]2O)[C@@H](O)[C@H](O)[C@H]1O[C@@H]1O[C@H](CO)[C@@H](O)[C@H](O)[C@H]1O)C(C)(C)O)[C@H]1CC[C@@]2(C)[C@@H]3CC=C4[C@@H](CC[C@H](O[C@@H]5O[C@H](CO[C@@H]6O[C@H](CO)[C@@H](O)[C@H](O)[C@H]6O)[C@@H](O)[C@H](O)[C@H]5O)C4(C)C)[C@]3(C)[C@H](O)C[C@]12C [Mogroside V] | 19 | 12 | – | –
26 | CC1(C)CC[C@]2(C(=O)O[C@@H]3O[C@H](CO)[C@@H](O)[C@H](O)[C@H]3O)CC[C@]3(C)C(=CC[C@@H]4[C@@]5(C)CC[C@H](O[C@@H]6O[C@H](C(=O)O)[C@@H](O)[C@H](O[C@@H]7OC[C@@H](O)[C@H](O)[C@H]7O)[C@H]6O)C(C)(C)[C@@H]5CC[C@]43C)[C@@H]2C1 [Momordin IIc] | 0 | 0 | – | –
27 | CC1(C)CC[C@]2(C(=O)O)CC[C@]3(C)C(=CC[C@@H]4[C@@]5(C)CC[C@H](O[C@@H]6O[C@H](C(=O)O)[C@@H](O)[C@H](O[C@@H]7OC[C@@H](O)[C@H](O)[C@H]7O)[C@H]6O)C(C)(C)[C@@H]5CC[C@]43C)[C@@H]2C1 [Momordin Ic] | 12 | 4 | – | –
28 | O=C(O)C1=CO[C@@H](O[C@@H]2O[C@H](CO)[C@@H](O)[C@H](O)[C@H]2O)[C@H]2[C@@H]1C=C[C@]2(O)CO [Monotropein] | 0 | 0 | – | –
29 | Cl.N=C(N=C(N)N)N1CCOCC1 [Moroxydine (hydrochloride)] | 13 | 8 | – | –
30 | CO[C@@]1(NC(=O)C(C(=O)[O-])c2ccc(O)cc2)C(=O)N2C(C(=O)[O-])=C(CSc3nnnn3C)CO[C@@H]21.[Na+].[Na+] (some centres unmarked) [Moxalactam (sodium salt)] | 22 | 8 | – | –
31 | CC(C)=CCc1c(-c2ccc(O)cc2O)oc2c(CC=C(C)C)c(O)cc(O)c2c1=O [Mulberrin] | 32 | 5 | – | –
32 | CNc1nc2nc[nH]c2c(=O)[nH]1 [N2‐Methylguanine] | – | – | 14 | 43
33 | CC1(C)CC(NC(=O)C(=O)Nc2ccc(Cl)cc2)CC(C)(C)N1 [NBD‐556] | 45 | 11 | – | –
34 | CC1(C)CC(NC(=O)C(=O)Nc2ccc(Br)cc2)CC(C)(C)N1 [NBD‐557] | 22 | 14 | – | –
